Data set [1] has as its system OVA-specific IgG antibody titer. As to the kind of experiment: Microneedle (OVA) application + transdermal adjuvant application; OVA-specific IgG antibody titer by ELISA. It is filed as in vivo, hairless rats. The conditions noted are these: for IgG antibody titer / adjuvant effect (FIG. 5): Example 5; for IgG antibody titer / adjuvant effect (FIG. 5) / IgG antibody titer / adjuvant effect (FIG. 2): 120 μL stock solution, 6 hr after OVA microneedles; for IgG antibody titer / adjuvant effect (FIG. 5) / IgG antibody titer / adjuvant effect (FIG. 1) / IgG antibody titer / adjuvant effect (FIG. 2): titers after 5 weeks; for IgG antibody titer / adjuvant effect (FIG. 5) / IgG antibody titer / adjuvant effect (FIG. 1): compared to OVA alone; for IgG antibody titer / adjuvant effect (FIG. 1): Example 1, 120 μL stock solution on patch-test tape for 6 hr after OVA microneedles, dosing weeks 0, 2, 4; for IgG antibody titer / adjuvant effect (FIG. 2): Example 3, purified water control; for Adjuvant effect against anti-OVA IgG: titers after 4 weeks. In general terms: ELISA stands for enzyme-linked immunosorbent assay.

The subject of the next data set is skin. On the set-up: Skin irritation score: key to the marks not given beside the values. The conditions noted are these: rat, in vivo.
Data set [2] has as its system OVA-specific IgG antibody titer. As to the kind of experiment: Microneedle (OVA) application + transdermal adjuvant application; OVA-specific IgG antibody titer by ELISA. It is filed as in vivo, hairless rats. Particulars: Example 4. The method, then:
(§1) Regarding (i) and (ii), OVA 20 μg/[…] (saline) was intradermally administered.

Data set [3] shares this test system. The data set is described as follows: Intradermic injection (OVA) application + glycerin application; OVA-specific IgG antibody titer by ELISA. It is filed as in vivo, hairless rats. The conditions noted are these: Example 4; intradermal OVA 20 μg + glycerin co-used; after two weeks. The method, then: as §1

Entries after “also recorded” stand apart in the source; their conditions may differ.

Experimental for skin: Dorsal hair of 8-week-old female hairless rats was shaved, and the rats were divided into (i) microneedle (OVA) application group, and (ii) microneedle (OVA) application+adjuvant-candidate application groups. The needle-tip part of microneedles was coated with 20 μg of OVA antigen, and the microneedles were puncture-administered for 30 min (the coating solution was an OVA/pullulan solution, and microneedles made of acetic acid with a needle length of approximately 500 μm and 625 needles/cm^2 were used). […] In any group, fixation was carried out using Coban™ and SKINAGATE™.
In the above (ii) microneedle (OVA) application+adjuvant-candidate application groups, condition of the skin at 24 hr after detachment of each adjuvant was observed and the degree of skin irritation was evaluated with a score (Table 1).

As for `CCCCCCCC/C=C\CCCCCCCC(=O)OCC(O)CO` (stereo not shown) [GMO, monoglyceryl oleate], the “IgG antibody titer / adjuvant effect (FIG. 5)” value in data set [1] was “adjuvant effect similar to that of low molecules such as glycerin”.
On to `CC(O)CO` (stereo not shown) [PG, propylene glycol], for which the “IgG antibody titer / adjuvant effect (FIG. 5)” value in data set [1] is “strong adjuvant effect”.
With `CCO` [ethanol], the “IgG antibody titer / adjuvant effect (FIG. 1)” value in data set [1] was “high adjuvant effect”. In the data set on skin, the Skin irritation observation entry is reported as “significant skin irritation accompanied by necrosis” and the Skin irritation score entry was “+++”.
For `OCC(O)CO` [glycerin], the “Adjuvant effect (FIG. 3)” value in data set [2] (OVA by microneedles + glycerin 120 μL 6 hr, titers after 4 weeks, compared to intradermal injection of OVA) is “exhibited more clearly by the microneedle application”. For the same molecule, the “IgG antibody titer time course (FIG. 4)” value in data set [2] (OVA microneedles with concomitant glycerin, from 2 weeks) is on record as “increase the IgG antibody titer was observed”. Besides, in data set [1], the “IgG antibody titer / adjuvant effect (FIG. 1)” value is recorded as “high adjuvant effect”. In addition, the “IgG antibody titer / adjuvant effect (FIG. 2)” value in data set [1] was “adjuvant effect of the glycerin was confirmed”. Besides, the “IgG antibody titer / adjuvant effect (FIG. 5)” value in data set [1] is “strong adjuvant effect”. Also, the “Adjuvant effect against anti-OVA IgG” value in data set [1] (Example 6, glycerin concentration 25%, 120 μL 6 hr) is “none”; in data set [1] (Example 6, glycerin concentration 75%, 120 μL 6 hr), “excellent adjuvant effect was confirmed”; in data set [1] (Example 6, glycerin concentration 75%, 120 μL 6 hr, listed as Glycerin) it was “present”; in data set [1] (Example 7, 100% glycerin applied 10 min after antigen administration by microneedles, 6 hr) it was “apparent increase in the IgG antibody titer; also recorded: high IgG antibody titer”; in data set [1] (Example 7, 100% glycerin applied 10 min after antigen administration by microneedles, 6 hr, listed as Glycerin) it was “present”; in data set [1] (Example 7, simultaneously with antigen, mixture of OVA/pullulan/41% glycerin on microneedles), “no adjuvant effect was observed”. Moreover, the “Adjuvant effect against anti-OVA IgG” value in data set [1] (Example 7, simultaneously with antigen, mixture of OVA/pullulan/41% glycerin on microneedles, listed as Glycerin) was “none”. Besides, the Adjuvant effect entry in data set [1] (glycerin concentration 100 wt %) is on record as “particularly excellent adjuvant effect”. Further, the “IgG antibody (FIG. 4)” value in data set [3] is listed as “no IgG antibody was detected”.
As for `CC(C)=CCC/C(C)=C/CC/C(C)=C/CC/C=C(\C)CC/C=C(\C)CCC=C(C)C` [squalene, reference compound], the “IgG antibody titer / adjuvant effect (FIG. 2)” value in data set [1] is listed as “low IgG antibody titer similar to the control”. Further, the Skin irritation result in the data set on skin is “no skin irritation”.
Regarding `CC(=O)OCC(COC(C)=O)OC(C)=O` [triacetin], the “IgG antibody titer / adjuvant effect (FIG. 5)” value in data set [1] was “strong adjuvant effect”.

For the origin of these results see US20140037694A1, “ADJUVANT FOR TRANSDERMAL OR TRANSMUCOSAL ADMINISTRATION AND PHARMACEUTICAL PREPARATION CONTAINING SAME” (HISAMITSU PHARMACEUTICAL CO., INC., priority 2011, published 2014).
